Each block holds one compound with its values, some of them ahead of it. The source made the active and inactive calls. The rule behind the calls is not given here.
Key:
hERG (KCNH2) = hERG (KCNH2) (Homo sapiens, UniProt Q12809); test: Inhibition of human ERG at 3 uM by patch clamp assay
Histamine H3 receptor = Histamine H3 receptor (Rattus norvegicus, UniProt Q9QYN8); test: Displacement of N-[3H]methylhistamine from histamine H3 receptor in rat cortex membrane; assay type: cell membranes
Rattus norvegicus [1] = test: Inhibition of (R)-alpha-methyl histamine induced drinking in Sprague-Dawley rat dipsogenia model at 1 mg/kg, po administered 0.5 hrs before (R)-alpha-methyl histamine challenge; assay type: functional
[2] = Oral bioavailability in Sprague-Dawley rat at 10 mg/kg, po up to 21 hrs; assay type: ADME, organism-based; details: in vivo
in vivo = details: Sprague-Dawley, rat, brain/plasma, po, 10 mg/kg
Rattus norvegicus [3] = test: Inhibition of (R)-alpha-methyl histamine induced drinking in Sprague-Dawley rat dipsogenia model at 3 mg/kg, po administered 0.5 hrs before (R)-alpha-methyl histamine challenge; assay type: functional
[4] = Plasma concentration in Sprague-Dawley rat at 10 mg/kg, po after 0.5 hrs; assay type: ADME, organism-based; parameters: dose 10 mg/kg, route oral
[5] = Half life in Sprague-Dawley rat at 10 mg/kg, po up to 21 hrs; assay type: ADME, organism-based; parameters: dose 10 mg/kg, route oral; details: in vivo
[6] = Drug level in Sprague-Dawley rat brain at 10 mg/kg, po after 0.5 hrs; assay type: ADME, organism-based; parameters: dose 10 mg/kg, route oral; details: read-out: Drug uptake
[7] = Tmax in Sprague-Dawley rat at 10 mg/kg, po up to 21 hrs; assay type: ADME, organism-based; parameters: dose 10 mg/kg, route oral; details: in vivo
[8] = biological target: Histamine H2 receptor (Homo sapiens) (UniProt P25021); test: Binding affinity to human histamine H2 receptor at 1 uM
[9] = biological target: Histamine H1 receptor (Homo sapiens) (UniProt P35367); test: Binding affinity to human histamine H1 receptor at 1 uM
[10] = biological target: Histamine H4 receptor (Homo sapiens) (UniProt Q9H3N8); test: Binding affinity to human histamine H4 receptor at 1 uM
Rattus norvegicus [11] = test: Inhibition of (R)-alpha-methyl histamine induced drinking in Sprague-Dawley rat dipsogenia model at 0.3 mg/kg, po administered 0.5 hrs before (R)-alpha-methyl histamine challenge; assay type: functional
Brain = test: Drug level in Sprague-Dawley rat brain assessed as 4'-[2-((R)-2-Methyl-pyrrolidin-1-yl)-ethyl]-biphenyl-4-sulfonic Acid Amide level at 1 mg/kg, po after 3.5 hrs; assay type: ADME, organism-based; parameters: dose 1 mg/kg, route oral; details: in vivo
Rattus norvegicus [12] = test: Increase in wakefulness in Sprague-Dawley rat at 1 mg/kg, po administered 4 hrs after lights out condition measured over 5 hrs period by polysomnographic method; assay type: functional
Rattus norvegicus [13] = test: Increase in wakefulness in Sprague-Dawley rat at 0.1 mg/kg, po administered 4 hrs after lights out condition measured over 5 hrs period by polysomnographic method; assay type: functional, organism-based; parameters: dose 0.1 mg/kg

Histamine H1 receptor (Homo sapiens), sequence (P35367 whole entry): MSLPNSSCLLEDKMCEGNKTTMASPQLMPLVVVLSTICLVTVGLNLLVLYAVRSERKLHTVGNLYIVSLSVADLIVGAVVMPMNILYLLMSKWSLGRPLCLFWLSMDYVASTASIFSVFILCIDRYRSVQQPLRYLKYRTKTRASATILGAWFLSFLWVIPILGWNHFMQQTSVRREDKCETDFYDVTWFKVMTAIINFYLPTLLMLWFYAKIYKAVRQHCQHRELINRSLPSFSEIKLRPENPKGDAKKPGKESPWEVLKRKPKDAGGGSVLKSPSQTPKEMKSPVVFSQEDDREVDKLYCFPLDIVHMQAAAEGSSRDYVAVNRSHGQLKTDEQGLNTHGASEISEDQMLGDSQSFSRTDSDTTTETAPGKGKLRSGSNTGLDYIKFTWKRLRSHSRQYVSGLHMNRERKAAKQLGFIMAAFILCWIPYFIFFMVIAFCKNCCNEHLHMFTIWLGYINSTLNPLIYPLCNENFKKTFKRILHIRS
Histamine H3 receptor, sequence (Q9QYN8 whole entry): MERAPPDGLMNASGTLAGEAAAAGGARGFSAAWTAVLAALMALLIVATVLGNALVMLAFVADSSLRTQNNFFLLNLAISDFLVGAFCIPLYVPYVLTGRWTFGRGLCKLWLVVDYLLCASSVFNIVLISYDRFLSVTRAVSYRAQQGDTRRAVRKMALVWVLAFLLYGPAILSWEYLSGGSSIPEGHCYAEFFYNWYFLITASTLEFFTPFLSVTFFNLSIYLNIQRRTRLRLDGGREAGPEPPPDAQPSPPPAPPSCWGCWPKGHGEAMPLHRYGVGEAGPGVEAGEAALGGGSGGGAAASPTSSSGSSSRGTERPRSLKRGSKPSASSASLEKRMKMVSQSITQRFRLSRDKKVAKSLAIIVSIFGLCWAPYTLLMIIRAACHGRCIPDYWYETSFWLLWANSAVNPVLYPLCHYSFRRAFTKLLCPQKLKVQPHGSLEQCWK
Histamine H2 receptor (Homo sapiens), sequence (P25021 whole entry): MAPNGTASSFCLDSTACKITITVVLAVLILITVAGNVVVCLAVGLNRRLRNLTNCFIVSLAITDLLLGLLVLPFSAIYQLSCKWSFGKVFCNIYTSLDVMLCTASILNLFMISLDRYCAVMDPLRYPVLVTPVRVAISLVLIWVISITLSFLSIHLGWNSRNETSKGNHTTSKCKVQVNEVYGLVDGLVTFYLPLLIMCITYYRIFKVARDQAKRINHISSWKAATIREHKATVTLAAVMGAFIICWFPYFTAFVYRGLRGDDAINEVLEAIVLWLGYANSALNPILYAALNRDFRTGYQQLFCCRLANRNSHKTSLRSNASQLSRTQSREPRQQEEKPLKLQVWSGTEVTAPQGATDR
hERG (KCNH2), sequence (Q12809 whole entry): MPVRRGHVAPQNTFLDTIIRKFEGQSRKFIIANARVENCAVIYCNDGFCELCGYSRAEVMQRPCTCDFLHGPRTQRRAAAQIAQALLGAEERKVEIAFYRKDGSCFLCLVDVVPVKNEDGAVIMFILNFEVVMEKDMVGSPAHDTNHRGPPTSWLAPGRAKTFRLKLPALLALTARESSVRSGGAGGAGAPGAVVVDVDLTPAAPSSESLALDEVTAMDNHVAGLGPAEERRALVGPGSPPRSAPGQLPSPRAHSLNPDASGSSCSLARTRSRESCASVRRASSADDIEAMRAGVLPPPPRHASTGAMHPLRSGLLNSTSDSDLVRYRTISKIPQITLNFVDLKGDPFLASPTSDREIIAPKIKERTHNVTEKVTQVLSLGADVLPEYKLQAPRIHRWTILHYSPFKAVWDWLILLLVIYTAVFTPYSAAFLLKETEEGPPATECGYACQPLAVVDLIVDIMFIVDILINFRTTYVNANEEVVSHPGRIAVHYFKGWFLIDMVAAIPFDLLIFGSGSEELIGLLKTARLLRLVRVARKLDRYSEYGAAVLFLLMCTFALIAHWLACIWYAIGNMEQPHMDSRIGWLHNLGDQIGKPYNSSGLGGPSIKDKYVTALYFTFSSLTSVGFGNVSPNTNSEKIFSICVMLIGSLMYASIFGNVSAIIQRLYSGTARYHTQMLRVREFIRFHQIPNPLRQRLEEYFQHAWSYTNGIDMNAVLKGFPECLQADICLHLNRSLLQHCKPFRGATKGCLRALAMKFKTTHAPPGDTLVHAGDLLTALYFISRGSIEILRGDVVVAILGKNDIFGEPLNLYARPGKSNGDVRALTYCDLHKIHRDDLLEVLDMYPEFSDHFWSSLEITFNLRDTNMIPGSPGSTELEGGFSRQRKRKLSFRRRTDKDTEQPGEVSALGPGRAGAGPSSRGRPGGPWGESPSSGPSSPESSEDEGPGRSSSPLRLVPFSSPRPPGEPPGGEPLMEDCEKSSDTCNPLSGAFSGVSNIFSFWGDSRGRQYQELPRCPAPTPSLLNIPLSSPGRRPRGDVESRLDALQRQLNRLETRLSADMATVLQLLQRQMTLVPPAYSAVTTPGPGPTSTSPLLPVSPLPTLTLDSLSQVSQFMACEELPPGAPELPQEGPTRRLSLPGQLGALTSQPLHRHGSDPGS

SMILES: C[C@@H]1CCCN1CCc1ccc(-c2ccc(S(=O)(=O)NCc3ccccc3)cc2)cc1
- inhibition at 3 µM (hERG (KCNH2)): 84%

- Ki (Histamine H3 receptor; read-out: pKi (converted)): 2.45 nM
SMILES: C[C@@H]1CCCN1CCc1ccc(-c2ccc(S(=O)(=O)N3CC[C@H](O)C3)cc2)cc1

- concentration at 0.5 h [6]: 800 ng/g
SMILES: C[C@@H]1CCCN1CCc1ccc(-c2ccc(S(N)(=O)=O)cc2)cc1

- Ki (Histamine H3 receptor; read-out: pKi (converted)): 0.182 nM
SMILES: C[C@@H]1CCCN1CCc1ccc(-c2ccc(S(=O)(=O)NCc3ccncc3)cc2)cc1
- inhibition at 3 µM (hERG (KCNH2)): 27%

- Ki (Histamine H3 receptor; read-out: pKi (converted)): 0.501 nM
SMILES: C[C@@H]1CCCN1CCc1ccc(-c2ccc(S(=O)(=O)N3Cc4ccccc4C3)cc2)cc1

- Ki (Histamine H3 receptor; read-out: pKi (converted)): 0.933 nM
SMILES: C[C@@H]1CCCN1CCc1ccc(-c2ccc(S(=O)(=O)N3CCS(=O)(=O)CC3)cc2)cc1

The remaining lines, values behind:

SMILES: CC(C)NS(=O)(=O)c1cccc(-c2ccc(CCN3CCC[C@H]3C)cc2)c1
- Ki (Histamine H3 receptor; read-out: pKi (converted)): 7.94 nM

SMILES: C[C@@H]1CCCN1CCc1ccc(-c2ccc(S(=O)(=O)NCC3CC3)cc2)cc1
- inhibition at 3 µM (hERG (KCNH2)): 54%

SMILES: C[C@@H]1CCCN1CCc1ccc(-c2ccc(S(=O)(=O)NC(C)(C)CO)cc2)cc1
- inhibition at 3 µM (hERG (KCNH2)): 37%

SMILES: COCCNS(=O)(=O)c1ccc(-c2ccc(CCN3CCC[C@H]3C)cc2)cc1
- inhibition in vivo at 1 mg/kg (Rattus norvegicus [1]): 40.7%
- bioavailability [2]: 22%
- inhibition at 3 µM (hERG (KCNH2)): 29%
- Kp at 0.5 h (in vivo): 0.78
- inhibition in vivo at 3 mg/kg (Rattus norvegicus [3]): 96.7%
- concentration at 0.5 h [4]: 11200 ng/mL
- half-life [5]: 156 min
- concentration at 0.5 h [6]: 8700 ng/mL
- Tmax [7]: 12 min
- Ki (Histamine H3 receptor; read-out: Ki): 3 nM

SMILES: C[C@@H]1CCCN1CCc1ccc(-c2ccc(S(=O)(=O)NC3CCOCC3)cc2)cc1
- inhibition in vivo at 1 mg/kg (Rattus norvegicus [1]): 77.5%
- bioavailability [2]: 62%
- Kp at 0.5 h (in vivo): 0.32
- Activity [8]: < 10%
- inhibition in vivo at 3 mg/kg (Rattus norvegicus [3]): 85.1%
- concentration at 0.5 h [4]: 440 ng/mL
- Activity [9]: < 10%
- half-life [5]: 138 min
- concentration at 0.5 h [6]: 140 ng/mL
- Tmax [7]: 48 min
- Ki (Histamine H3 receptor; read-out: Ki): 2 nM
- Activity [10]: < 10%

SMILES: CCN(CC)S(=O)(=O)c1cccc(-c2ccc(CCN3CCC[C@H]3C)cc2)c1
- Ki (Histamine H3 receptor; read-out: pKi (converted)): 16.2 nM

SMILES: C[C@@H]1CCCN1CCc1ccc(-c2ccc(S(=O)(=O)N3CCOCC3)cc2)cc1
- inhibition in vivo at 1 mg/kg (Rattus norvegicus [1]): 99.8%
- bioavailability [2]: 12%
- Activity [8]: < 10%
- concentration at 0.5 h [4]: 160 ng/mL
- Activity [9]: < 10%
- half-life [5]: 72 min
- concentration at 0.5 h [6]: 320 ng/mL
- Tmax [7]: 102 min
- Ki (Histamine H3 receptor; read-out: Ki): 2 nM
- inhibition in vivo at 0.3 mg/kg (Rattus norvegicus [11]): 34.1%
- Activity [10]: < 10%

SMILES: CCNS(=O)(=O)c1cccc(-c2ccc(CCN3CCC[C@H]3C)cc2)c1
- Ki (Histamine H3 receptor; read-out: pKi (converted)): 11 nM

SMILES: CCN(CC)S(=O)(=O)c1ccc(-c2ccc(CCN3CCC[C@H]3C)cc2)cc1
- Ki (Histamine H3 receptor; read-out: pKi (converted)): 1.41 nM

SMILES: C[C@@H]1CCCN1CCc1ccc(-c2ccc(S(=O)(=O)NC3CCC3)cc2)cc1
- inhibition at 3 µM (hERG (KCNH2)): 79%

SMILES: C[C@@H]1CCCN1CCc1ccc(-c2cccc(S(=O)(=O)N3CCCCC3)c2)cc1
- Ki (Histamine H3 receptor; read-out: pKi (converted)): 12.6 nM

SMILES: CCNS(=O)(=O)c1ccc(-c2ccc(CCN3CCC[C@H]3C)cc2)cc1
- inhibition in vivo at 1 mg/kg (Rattus norvegicus [1]): 77.6%
- bioavailability [2]: 93%
- Drug uptake (Brain): 246 ng/mL
- Kp at 0.5 h (in vivo): 2.3
- Activity [8]: < 10%
- inhibition in vivo at 3 mg/kg (Rattus norvegicus [3]): 69.6%
- Activity (Rattus norvegicus [12]): 40%
- concentration at 0.5 h [4]: 1600 ng/mL
- Activity [9]: < 10%
- half-life [5]: 108 min
- concentration at 0.5 h [6]: 3600 ng/mL
- Tmax [7]: 30 min
- Activity (Rattus norvegicus [13]): inactive
- Activity [10]: < 10%

— ChEMBL document CHEMBL1153532, “Design and evaluation of novel biphenyl sulfonamide derivatives with potent histamine H(3) receptor inverse agonist activity” (J Med Chem, 2009)
